Measurements reported in US20240156860A1, “METHOD OF TREATING INFECTED AND NONINFECTED BURN WOUNDS” (priority 2021, published 2024).

Assays:
Type in all cases: cell-based, Pseudomonas aeruginosa
PAO1 = assay: Checkerboard assay for MIC and FIC determination; conditions: strain PAO1
Experimental: (§1) The inventors further confirmed the bactericidal activity of AB569 gel against various clinical strains of PA isolated from burn wound patients by synergy measurements using the checkerboard analysis. […] FICI=Fractional inhibitory concentration index. […] is synergistic; 0.5<FICI<1 is weak synergistic.
(§2) 96-well polystyrene plates were filled with 100 μl of LB, pH 6.5 and 10% SS hydrogel (Smith and Nephew, London, UK). Row A was filled with 100 μl of a 4× stock of Na2-EDTA (16 mM) and […] was filled with 4× NaNO2 stock (256 mM), bringing both to a 2× concentration. Two-fold serial dilutions were performed such that a concentration gradient of each was created. Column 12 was filled with media to represent a negative control. An overnight culture of bacteria was adjusted to an OD600 of 0.5 in LB media. This was then diluted 1:1000 into fresh media, which was then added to the checkerboard plate (columns 1-11). This dilution was selected as it harbored ˜5×10^5 CFU/ml. Column 11 was the positive control. Plates were incubated at 37° C. The cell turbidity was determined using a 96 well plate reader after 24 hours inoculation. The threshold used for a positive cutoff to calculate MICs and FICs was 0.001 after blank (media) subtraction.

[1] = test system: clinical strains of PA isolated from burn wounds; assay: Checkerboard assay for MIC and FIC determination; conditions: for MIC EDTA / MIC NaNO2: LB pH 6.5, 10% SS hydrogel, 24 hours; for FIC NaNO2: NaNO2 in combination with EDTA
Experimental: as §1, §2

bioluminescent PA Xen41 = assay: Broth based killing assay; conditions: for killing of PA Xen41: 2 mM Na2-EDTA and/or 30 mM NaNO2 with gel (Solosite) 1:100, LB pH 6.5, 48 hours
Experimental: The efficacy of a formulation according to the present disclosure was tested in vitro using an overnight culture of bioluminescent PA Xen41, diluted in LB media (pH 6.5) along with a gel (Solosite®, herein SS) at a 1:100 dilution. Bioluminescent PA was used for both in vitro and in vivo experiments.
(§3) Bioluminescent PA-Xen41 was grown overnight in LB media at 37° C. with shaking. Overnight cultures were diluted 100-fold into fresh LBN (LB-1% KNO3) 6.5 media and 5 ml aliquots were transferred to culture tubes. Final concentrations of 30 mM NaNO2 and/or 2 mM Na2-EDTA were added to each tube. Cells were grown anaerobically at 37° C. mimicking a mature biofilm. Samples were taken daily for 48 hours while the cells were still in the anaerobic chamber. Samples were serially diluted in PBS, pH 7.4, and 10 μl aliquot from each dilution placed on LB agar plates and grown aerobically overnight at 37° C. CFU were enumerated the next morning and converted to CFU/ml after multiplying by the dilution factor.

[2] = test system: clinical strains of PA isolated from human burn patients; assay: Broth based killing assay on clinical strains; conditions: gel formulation; 2 mM Na2-EDTA and/or 30 mM NaNO2; strains with varying antibiotic sensitivity and resistance
Experimental: The efficacy of the AB569 gel formulation was tested on different clinical strains of PA isolated from human burn patients with varying sensitivity and resistance to antibiotics using a broth based killing assay.
as §3

[3] = LB pH 6.5, 10% SS hydrogel, 24 hours

How did the “FIC EDTA” value (PAO1; EDTA in combination with NaNO2) turn out when `O=C([O-])CN(CCN(CC(=O)[O-])CC(=O)O)CC(=O)O.[Na+].[Na+]` [Na2-EDTA, di-sodium EDTA] was run?
The value was 0.333 ± 0.144 mM.

And the “MIC EDTA” value (PAO1; [3])?
The value was 0.833 ± 0.289 mM.

And the “MIC EDTA” value ([1]; strain Burn #1-1)?
Its value is 0.5 ± 0^ mM.

And the “MIC EDTA” value ([1]; strain Burn #1)?
Its value is 0.833 ± 0.289 mM.

What about the “MIC EDTA” value ([1]; strain Burn #2-1) of the same molecule?
Its value is 0.833 ± 0.289 mM.

What about the “MIC EDTA” value ([1]; strain Burn #2) of the same molecule?
Its value is 0.5 ± 0^ mM.

And the “MIC EDTA” value ([1]; strain Burn #3-1)?
Its value is 0.667 ± 0.289 mM.

What about the “MIC EDTA” value ([1]; strain Burn #3) of the same molecule?
Its value is 0.833 ± 0.289 mM.

What about the “MIC EDTA” value ([1]; strain Burn #4-1) of the same molecule?
The value was 0.5 ± 0^ mM.

And the “MIC EDTA” value ([1]; strain Burn #4)?
Its value is 0.667 ± 0.289 mM.

And the “MIC EDTA” value ([1]; strain Burn #5-1)?
The value was 0.5 ± 0^ mM.

And the “MIC EDTA” value ([1]; strain Burn #5)?
Its value is 0.5 ± 0^ mM.

What about the “MIC EDTA” value ([1]; strain Burn #6-1) of the same molecule?
Its value is 0.5 ± 0^ mM.

And the “MIC EDTA” value ([1]; strain Burn #6)?
The value was 0.667 ± 0.289 mM.

What about the “MIC EDTA” value ([1]; strain Burn #7-1) of the same molecule?
The value was 0.5 ± 0^ mM.

And the “MIC EDTA” value ([1]; strain Burn #7)?
The value was 0.833 ± 0.289 mM.

And the “MIC EDTA” value ([1]; strain Burn #8-1)?
The value was 0.5 ± 0^ mM.

And the “MIC EDTA” value ([1]; strain Burn #8)?
Its value is 0.667 ± 0.289 mM.

And the “MIC EDTA” value ([1]; strain Burn #9-1)?
Its value is 0.5 ± 0^ mM.

What about the “MIC EDTA” value ([1]; strain Burn #9) of the same molecule?
Its value is 0.5 ± 0^ mM.

What about the “MIC EDTA” value ([1]; strain Burn #10-1) of the same molecule?
Its value is 0.416 ± 0.144 mM.

And the “MIC EDTA” value ([1]; strain Burn #11-1)?
Its value is 0.667 ± 0.289 mM.

What about the “MIC EDTA” value ([1]; strain Burn #12-1) of the same molecule?
Its value is 0.5 ± 0^ mM.

What about the “killing of PA Xen41” value (bioluminescent PA Xen41) of the same molecule?
The value was “significant killing”.

And the “killing of clinical strains of PA” value [2]?
The value was “efficient killing”.

How did the “MIC NaNO2” value (PAO1; [3]) turn out when `O=N[O-].[Na+]` [NaNO2] was run?
The value was 18.667 ± 12.220 mM.

And the “FIC NaNO2” value (PAO1; NaNO2 in combination with EDTA)?
Its value is 4.083 ± 3.876 mM.

And the “MIC NaNO2” value ([1]; strain Burn #1-1)?
Its value is 26.667 ± 9.238 mM.

And the “FIC NaNO2” value ([1]; strain Burn #1-1)?
The value was 5.333 ± 2.309 mM.

And the “MIC NaNO2” value ([1]; strain Burn #1)?
Its value is 18.667 ± 12.220 mM.

What about the “FIC NaNO2” value ([1]; strain Burn #1) of the same molecule?
Its value is 4.167 ± 3.752 mM.

And the “MIC NaNO2” value ([1]; strain Burn #2-1)?
The value was 26.667 ± 9.238 mM.

And the “FIC NaNO2” value ([1]; strain Burn #2-1)?
Its value is 6.667 ± 2.309 mM.

And the “MIC NaNO2” value ([1]; strain Burn #2)?
Its value is 14.667 ± 15.144 mM.

And the “FIC NaNO2” value ([1]; strain Burn #2)?
Its value is 7.333 ± 7.572 mM.

What about the “MIC NaNO2” value ([1]; strain Burn #3-1) of the same molecule?
Its value is 21.333 ± 9.238 mM.

What about the “FIC NaNO2” value ([1]; strain Burn #3-1) of the same molecule?
Its value is 5.333 ± 2.309 mM.

What about the “MIC NaNO2” value ([1]; strain Burn #3) of the same molecule?
The value was 24 ± 13.856 mM.

What about the “FIC NaNO2” value ([1]; strain Burn #3) of the same molecule?
Its value is 6.667 ± 2.309 mM.

And the “MIC NaNO2” value ([1]; strain Burn #4-1)?
The value was 21.333 ± 9.238 mM.

What about the “FIC NaNO2” value ([1]; strain Burn #4-1) of the same molecule?
The value was 9.333 ± 6.110 mM.

What about the “MIC NaNO2” value ([1]; strain Burn #4) of the same molecule?
The value was 13.333 ± 4.618 mM.

What about the “FIC NaNO2” value ([1]; strain Burn #4) of the same molecule?
Its value is 2.75 ± 2.165 mM.

What about the “MIC NaNO2” value ([1]; strain Burn #5-1) of the same molecule?
The value was 21.333 ± 9.238 mM.

What about the “FIC NaNO2” value ([1]; strain Burn #5-1) of the same molecule?
The value was 2.667 ± 1.155 mM.

And the “MIC NaNO2” value ([1]; strain Burn #5)?
The value was 13.333 ± 4.618 mM.

And the “FIC NaNO2” value ([1]; strain Burn #5)?
Its value is 4.667 ± 3.055 mM.

What about the “MIC NaNO2” value ([1]; strain Burn #6-1) of the same molecule?
The value was 13.333 ± 4.618 mM.

What about the “FIC NaNO2” value ([1]; strain Burn #6-1) of the same molecule?
Its value is 2.333 ± 1.523 mM.

What about the “MIC NaNO2” value ([1]; strain Burn #6) of the same molecule?
Its value is 18.667 ± 12.220 mM.

And the “FIC NaNO2” value ([1]; strain Burn #6)?
Its value is 5.333 ± 2.309 mM.

What about the “MIC NaNO2” value ([1]; strain Burn #7-1) of the same molecule?
The value was 21.333 ± 9.238 mM.

What about the “FIC NaNO2” value ([1]; strain Burn #7-1) of the same molecule?
The value was 6 ± 3.464 mM.

What about the “MIC NaNO2” value ([1]; strain Burn #7) of the same molecule?
Its value is 24 ± 13.856 mM.

And the “FIC NaNO2” value ([1]; strain Burn #7)?
The value was 6.667 ± 2.309 mM.

And the “MIC NaNO2” value ([1]; strain Burn #8-1)?
Its value is 21.333 ± 9.238 mM.

And the “FIC NaNO2” value ([1]; strain Burn #8-1)?
Its value is 0.75 ± 0.433 mM.

And the “MIC NaNO2” value ([1]; strain Burn #8)?
The value was 16 ± 0 mM.

And the “FIC NaNO2” value ([1]; strain Burn #8)?
Its value is 2.167 ± 1.756 mM.

And the “MIC NaNO2” value ([1]; strain Burn #9-1)?
Its value is 21.333 ± 9.238 mM.

And the “FIC NaNO2” value ([1]; strain Burn #9-1)?
The value was 4.666 ± 3.055 mM.

What about the “MIC NaNO2” value ([1]; strain Burn #9) of the same molecule?
Its value is 13.333 ± 4.618 mM.

And the “FIC NaNO2” value ([1]; strain Burn #9)?
The value was 5.333 ± 2.309 mM.

What about the “MIC NaNO2” value ([1]; strain Burn #10-1) of the same molecule?
Its value is 16 ± 0 mM.

What about the “FIC NaNO2” value ([1]; strain Burn #10-1) of the same molecule?
The value was 4 ± 0 mM.

And the “MIC NaNO2” value ([1]; strain Burn #11-1)?
The value was 32 ± 27.713 mM.

And the “FIC NaNO2” value ([1]; strain Burn #11-1)?
The value was 8 ± 0 mM.

And the “MIC NaNO2” value ([1]; strain Burn #12-1)?
The value was 26.667 ± 9.238 mM.

And the “FIC NaNO2” value ([1]; strain Burn #12-1)?
The value was 6 ± 3.464 mM.

What about the “killing of PA Xen41” value (bioluminescent PA Xen41) of the same molecule?
Its value is “completely killed”.

And the “killing of PA Xen41” value (bioluminescent PA Xen41; listed as A-NO2^−)?
Its value is “complete and maintained 48 hours”.

And the “bioluminescent signals of XEN41-containing plates (IVIS)” value (bioluminescent PA Xen41; 48 hours after treatment)?
Its value is “elimination of bioluminescent signals”.
